pIC50: −log10 of the molar value. Where two headings read alike, the source gives them in different places.

For the test, the target named is T1, EZH2 within the PRC2 complex (Homo sapiens, UniProt Q15910).
T1 construct: FLAG; made in house; host or cells: Sf9 cells
Briefly: EZH2 methyltransferase scintillation proximity assay (SPA) with PRC2 complex. The format is biochemical. The following applies: for IC50: 3H-SAM methyl transfer to Histone H3 of HeLa mononucleosomes, read-out: EZH2 pIC50 (converted); for pIC50: EZH2 inhibition, foregoing or analogous assay, unit inferred, read-out: IC50. How it is done:
Compounds contained herein were evaluated for their ability to inhibit the methyltransferase activity of EZH2 within the PRC2 complex. Human PRC2 complex was prepared by co-expressing each of the 5 member proteins (FLAG-EZH2, EED, SUZ12, RbAp48, AEBP2) in Sf9 cells followed by co-purification. Enzyme activity was measured in a scintillation proximity assay (SPA) where a tritiated methyl group is transferred from 3H-SAM to a lysine residue on Histone H3 of a mononucleosome, purified from HeLa cells. Mononucleosomes were captured on SPA beads and the resulting signal is read on a ViewLux plate reader.
Part A. Compound Preparation
• 1. Prepare 10 mM stock of compounds from solid in 100% DMSO. • 2. Set up an 11-point serial dilution (1:3 dilution, top concentration 10 mM) in 100% DMSO for each test compound in a 384 well plate leaving columns 6 and 18 for DMSO controls. • 3. Dispense […] of compound from the dilution plate into reaction plates (Grenier Bio-One, 384-well, Cat #784075). Part B. Reagent Preparation Prepare the following solutions: • 1. 50 mM Tris-HCl, pH 8: Per 1 L of base buffer, combine 1 M Tris-HCl, pH 8 (50 mL) and distilled water (950 mL). • 2. […] 2× Enzyme Solution: Per 10 mL of 2× Enzyme Solution, combine 1× Assay Buffer and PRC2 complex to provide a final enzyme concentration of 10 nM. • 4. SPA Bead Suspension: Per 1 mL of SPA Bead Suspension, combine PS-PEI coated LEADSeeker beads (40 mg) and ddH2O (1 mL) to provide a final concentration of 40 mg/mL. • 5. 2× Substrate Solution: Per 10 mL of 2× Substrate Solution, combine 1× Assay Buffer (9728.55 uL), 800 ug/mL mononucleosomes (125 uL), 1 mM cold SAM (4 uL), and 7.02 uM 3H-SAM (142.45 uL; 0.55 mCi/mL) to provide a final concentration of 5 ug/mL nucleosomes, 0.2 uM cold SAM, and 0.05 uM 3H-SAM. • 6. 2.67× Quench/Bead Mixture: Per 10 mL of 2.67× Quench/Bead Mixture, combine ddH2O (9358 uL), 10 mM cold SAM (267 uL), 40 mg/mL Bead Suspension (375 uL) to provide a final concentration of 100 uM cold SAM and 0.5 mg/mL SPA beads. Part C. Assay Reaction in 384-well Grenier Bio-One Plates Compound Addition • 1. Dispense […] of 100× Compound to test wells (as noted above). • 2. Dispense […] of 100% DMSO to columns 6 & 18 for high and low controls, respectively. Assay • 1. […] Dispense 5 uL/well of 2× Enzyme Solution to columns 1-17, 19-24. • 3. Spin assay plates for ˜1 minute at 500 rpm. • 4. Stack the assay plates, covering the top plate. • 5. Incubate the compound/DMSO with the enzyme for 30 minutes at room temperature. • 6. Dispense 5 uL/well of 2× Substrate Solution to columns 1-24. • 7. Spin assay plates for ˜1 minute at 500 rpm. • 8. Stack the assay plates, covering the top plate. • 9. Incubate the assay plates at room temperature for 1 hour. Quench/Bead Addition • 1. Dispense 5 uL/well of the 3× Quench/Bead Mixture to columns 1-24. • 2. Seal the top of each assay plate with adhesive TopSeal. • 3. Spin assay plates for ˜1 minute at 500 rpm. • 4. Equilibrate the plates for >20 min. Read Plates • 1. Read the assay plates on the Viewlux Plate Reader utilizing the 613 nm emission filter with a 300 s read time. Reagent addition can be done manually or with automated liquid handler. • The final DMSO concentration in this assay is 1%. • The positive control is in column 6; negative control is in column 18. • Final starting concentration of compounds is 100 μM. Part D. Data Analysis
Percent inhibition was calculated relative to the DMSO control for each compound concentration and the resulting values were fit using standard IC50 fitting parameters within the ABASE data fitting software package.
On the technique in general: In a scintillation proximity assay essentially only radioactivity close to the scintillant gives light.

T1 sequence (Q15910 whole entry): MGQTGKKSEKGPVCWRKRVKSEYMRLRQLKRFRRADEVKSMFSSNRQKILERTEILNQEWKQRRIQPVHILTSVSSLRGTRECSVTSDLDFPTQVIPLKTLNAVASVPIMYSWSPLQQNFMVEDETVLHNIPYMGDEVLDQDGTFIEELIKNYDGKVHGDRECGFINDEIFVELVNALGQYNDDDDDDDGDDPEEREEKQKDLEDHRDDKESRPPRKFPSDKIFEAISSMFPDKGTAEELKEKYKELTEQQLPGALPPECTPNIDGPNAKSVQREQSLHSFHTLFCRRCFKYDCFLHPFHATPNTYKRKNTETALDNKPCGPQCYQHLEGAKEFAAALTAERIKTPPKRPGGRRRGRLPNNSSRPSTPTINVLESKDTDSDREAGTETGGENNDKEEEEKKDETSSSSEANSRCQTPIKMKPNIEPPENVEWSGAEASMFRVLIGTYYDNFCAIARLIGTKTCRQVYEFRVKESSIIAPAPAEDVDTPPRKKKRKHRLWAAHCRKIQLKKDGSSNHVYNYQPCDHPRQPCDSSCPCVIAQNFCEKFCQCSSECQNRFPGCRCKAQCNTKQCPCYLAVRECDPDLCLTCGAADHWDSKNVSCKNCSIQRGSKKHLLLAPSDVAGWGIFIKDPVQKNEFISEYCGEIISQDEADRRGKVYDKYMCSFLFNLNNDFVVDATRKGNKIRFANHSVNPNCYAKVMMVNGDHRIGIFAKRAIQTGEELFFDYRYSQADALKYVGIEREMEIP
T1 sequence (O75530 whole entry partner): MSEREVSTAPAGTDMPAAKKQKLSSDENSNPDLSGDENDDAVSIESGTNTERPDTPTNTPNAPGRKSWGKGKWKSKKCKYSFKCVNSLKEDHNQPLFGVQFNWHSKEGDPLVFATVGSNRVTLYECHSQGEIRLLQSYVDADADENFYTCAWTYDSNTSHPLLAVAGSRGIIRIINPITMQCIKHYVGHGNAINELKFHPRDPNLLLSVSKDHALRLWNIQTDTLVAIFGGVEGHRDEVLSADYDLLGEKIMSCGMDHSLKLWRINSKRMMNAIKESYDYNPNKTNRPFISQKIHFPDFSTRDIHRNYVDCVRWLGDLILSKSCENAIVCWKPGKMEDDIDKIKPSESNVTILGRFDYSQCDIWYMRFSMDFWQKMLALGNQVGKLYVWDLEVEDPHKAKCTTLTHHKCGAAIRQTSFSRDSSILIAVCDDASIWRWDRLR
T1 sequence (Q15022 whole entry partner): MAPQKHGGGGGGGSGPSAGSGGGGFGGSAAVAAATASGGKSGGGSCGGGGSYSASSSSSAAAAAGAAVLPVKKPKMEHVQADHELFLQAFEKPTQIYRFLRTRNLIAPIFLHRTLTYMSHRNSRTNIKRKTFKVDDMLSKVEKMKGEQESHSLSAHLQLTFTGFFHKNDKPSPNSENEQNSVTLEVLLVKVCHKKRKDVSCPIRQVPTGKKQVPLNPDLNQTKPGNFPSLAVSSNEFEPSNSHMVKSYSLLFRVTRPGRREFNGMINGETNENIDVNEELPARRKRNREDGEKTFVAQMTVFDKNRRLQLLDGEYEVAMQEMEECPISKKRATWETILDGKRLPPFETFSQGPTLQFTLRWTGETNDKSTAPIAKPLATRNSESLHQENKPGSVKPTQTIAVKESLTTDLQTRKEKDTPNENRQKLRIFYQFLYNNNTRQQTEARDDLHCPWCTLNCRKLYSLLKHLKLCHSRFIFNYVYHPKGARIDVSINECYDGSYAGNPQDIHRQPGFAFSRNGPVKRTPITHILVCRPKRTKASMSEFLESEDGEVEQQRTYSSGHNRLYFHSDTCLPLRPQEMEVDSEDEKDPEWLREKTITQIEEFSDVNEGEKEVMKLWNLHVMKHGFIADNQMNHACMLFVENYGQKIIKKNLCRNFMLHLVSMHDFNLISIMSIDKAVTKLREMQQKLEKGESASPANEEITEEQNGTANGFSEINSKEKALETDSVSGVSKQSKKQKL
T1 sequence (Q09028 whole entry partner): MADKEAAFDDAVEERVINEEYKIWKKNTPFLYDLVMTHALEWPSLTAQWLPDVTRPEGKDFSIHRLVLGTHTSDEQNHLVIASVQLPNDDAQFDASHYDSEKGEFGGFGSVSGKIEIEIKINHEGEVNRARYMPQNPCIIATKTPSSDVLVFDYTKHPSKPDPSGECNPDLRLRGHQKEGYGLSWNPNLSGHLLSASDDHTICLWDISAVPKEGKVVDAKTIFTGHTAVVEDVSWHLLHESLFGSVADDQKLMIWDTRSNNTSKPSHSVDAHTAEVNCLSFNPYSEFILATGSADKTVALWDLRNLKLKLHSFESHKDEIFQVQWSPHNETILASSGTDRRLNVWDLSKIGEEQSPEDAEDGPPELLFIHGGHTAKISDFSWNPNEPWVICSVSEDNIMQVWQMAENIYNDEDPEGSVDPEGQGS
T1 sequence (Q6ZN18 whole entry partner): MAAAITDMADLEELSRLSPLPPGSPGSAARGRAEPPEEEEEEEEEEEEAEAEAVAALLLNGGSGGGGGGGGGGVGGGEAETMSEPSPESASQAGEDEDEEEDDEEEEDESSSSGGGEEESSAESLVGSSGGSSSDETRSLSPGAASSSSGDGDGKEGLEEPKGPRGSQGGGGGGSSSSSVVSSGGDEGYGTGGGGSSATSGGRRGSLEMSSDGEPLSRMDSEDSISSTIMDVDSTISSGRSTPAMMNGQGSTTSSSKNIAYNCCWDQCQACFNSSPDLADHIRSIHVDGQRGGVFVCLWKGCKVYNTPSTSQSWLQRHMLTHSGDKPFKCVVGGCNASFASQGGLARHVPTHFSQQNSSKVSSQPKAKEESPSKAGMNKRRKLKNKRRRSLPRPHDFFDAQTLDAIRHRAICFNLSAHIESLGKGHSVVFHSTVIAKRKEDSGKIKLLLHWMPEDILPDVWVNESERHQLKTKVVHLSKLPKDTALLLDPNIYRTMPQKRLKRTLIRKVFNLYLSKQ

For `Cc1cc(C)c(CNC(=O)c2cc(-c3ccc(CN4CCOCC4)nc3)cc3c2c(C)cn3C(C)C)c(=O)[nH]1` [Example 350, N-[(4,6-dimethyl-2-oxo-1,2-dihydro-3-pyridinyl)methyl]-3-methyl-1-(1-methylethyl)-6-[6-(4-morpholinylmethyl)-3-pyridinyl]-1H-indole-4-carboxamide], the IC50 is 22.9 nM.

As for `Cc1cc(C)c(CNC(=O)c2cc(-c3ccc4[nH]cnc4c3)cc3c2c(C)cn3C(C)C)c(=O)[nH]1` [Ex 211, 6-(1H-benzimidazol-5-yl)-N-[(4,6-dimethyl-2-oxo-1,2-dihydro-3-pyridinyl)methyl]-3-methyl-1-(1-methylethyl)-1H-indole-4-carboxamide], the negative logarithm of the IC50 (pIC50) was 7.85. For `CC[C@H](C)n1cc(C)c2c(C(=O)NCc3c(C)cc(C)[nH]c3=O)cc(Br)cc21` [Ex 267, (S)-6-bromo-1-(sec-butyl)-N-((4,6-dimethyl-2-oxo-1,2-dihydropyridin-3-yl)methyl)-3-methyl-1H-indole-4-carboxamide], the negative logarithm of the IC50 (pIC50) was 7.70. With `Cc1cc(C)c(CNC(=O)c2cc(-c3ccc(CN4C[C@@H](C)O[C@@H](C)C4)nc3)cc3c2c(C)cn3C(C)C)c(=O)[nH]1` [Example 348, 6-(6-{[(2R,6S)-2,6-dimethyl-4-morpholinyl]methyl}-3-pyridinyl)-N-[(4,6-dimethyl-2-oxo-1,2-dihydro-3-pyridinyl)methyl]-3-methyl-1-(1-methylethyl)-1H-indole-4-carboxamide], the IC50 is 36.3 nM. In the case of `CC[C@@H](C)n1cc(C)c2c(C(=O)NCc3c(C)cc(C)[nH]c3=O)cc(Br)cc21` [Ex 268, (R)-6-Bromo-1-(sec-butyl)-N-((4,6-dimethyl-2-oxo-1,2-dihydropyridin-3-yl)methyl)-3-methyl-1H-indole-4-carboxamide], the pIC50 was 7.40. Still for that read-out and setting: with `Cc1cc(Cn2cccn2)c(CNC(=O)c2cc(Br)cc3c2c(C)cn3C(C)C)c(=O)[nH]1` [Ex 234, 6-bromo-3-methyl-1-(1-methylethyl)-N-{[6-methyl-2-oxo-4-(1H-pyrazol-1-ylmethyl)-1,2-dihydro-3-pyridinyl]methyl}-1H-indole-4-carboxamide] the figure was 6.00.

On to `Cc1cc(C)c(CNC(=O)c2cc(-c3ccc(OCCN(C)C)cc3)cc3c2c(C)cn3C(C)C)c(=O)[nH]1` [Ex 174, 6-(4-{[2-(dimethylamino)ethyl]oxy}phenyl)-N-[(4,6-dimethyl-2-oxo-1,2-dihydro-3-pyridinyl)methyl]-3-methyl-1-(1-methylethyl)-1H-indole-4-carboxamide], for which the pIC50 is 7.74. `Cc1cc(C)c(CNC(=O)c2cc(-c3ccc(CN4CCN(C)CC4)nc3)cc3c2c(C)cn3C(C)C)c(=O)[nH]1` [Example 349, N-[(4,6-dimethyl-2-oxo-1,2-dihydro-3-pyridinyl)methyl]-3-methyl-1-(1-methylethyl)-6-{6-[(4-methyl-1-piperazinyl)methyl]-3-pyridinyl}-1H-indole-4-carboxamide]: the IC50 was 25.1 nM. For `CC[C@@H](C)n1cc(C)c2c(C(=O)NCc3c(C)cc(C)[nH]c3=O)cc(-c3cccc(CN(C)C)c3)cc21` [Ex 274, 6-{3-[(dimethylamino)methyl]phenyl}-N-[(4,6-dimethyl-2-oxo-1,2-dihydro-3-pyridinyl)methyl]-3-methyl-1-[(1R)-1-methylpropyl]-1H-indole-4-carboxamide], the pIC50 is 7.49. Turning to `Cc1cc(C)c(CNC(=O)c2cc(C3COC3)cc3c2c(C)cn3C(C)C)c(=O)[nH]1` [Example 360, N-[(4,6-dimethyl-2-oxo-1,2-dihydro-3-pyridinyl)methyl]-3-methyl-1-(1-methylethyl)-6-(3-oxetanyl)-1H-indole-4-carboxamide], the IC50 is 288 nM.

For `Cc1cc(C)c(CNC(=O)c2cc(NC(=O)N3CCN(C)CC3)cc3c2c(C)cn3C(C)C)c(=O)[nH]1` [Example 362, N-[(4,6-dimethyl-2-oxo-1,2-dihydro-3-pyridinyl)methyl]-3-methyl-1-(1-methylethyl)-6-{[(4-methyl-1-piperazinyl)carbonyl]amino}-1H-indole-4-carboxamide], the IC50 is 129 nM. With `Cc1cc(C)c(CNC(=O)c2cc(-c3cc4[nH]ncc4cn3)cc3c2c(C)cn3C(C)C)c(=O)[nH]1` [Ex 244, N-((4,6-dimethyl-2-oxo-1,2-dihydropyridin-3-yl)methyl)-1-isopropyl-3-methyl-6-(1H-pyrazolo[4,3-c]pyridin-6-yl)-1H-indole-4-carboxamide], the pIC50 was 7.54.

As for `Cc1cc(C)c(CNC(=O)c2cc(Br)cc3c2c(C)cn3CC(C)N(C)C)c(=O)[nH]1` (centres unmarked) [Ex 78, 6-bromo-N-((4,6-dimethyl-2-oxo-1,2-dihydropyridin-3-yl)methyl)-1-(2-(dimethylamino)propyl)-3-methyl-1H-indole-4-carboxamide], the pIC50 is 5.74. The same measure, in the same setting: in the case of `Cc1cc(C)c(CNC(=O)c2cc(-c3ccc4c(N)n[nH]c4c3)cc3c2c(C)cn3C(C)C)c(=O)[nH]1` [Ex 212, 6-(3-amino-1H-indazol-6-yl)-N-[(4,6-dimethyl-2-oxo-1,2-dihydro-3-pyridinyl)methyl]-3-methyl-1-(1-methylethyl)-1H-indole-4-carboxamide] it was 8.05. On to `Cc1cc(C)c(CNC(=O)c2cc(-c3ccc(CO)nc3)cc3c2c(C)cn3C(C)C)c(=O)[nH]1` [Example 359, N-[(4,6-dimethyl-2-oxo-1,2-dihydro-3-pyridinyl)methyl]-6-[6-(hydroxymethyl)-3-pyridinyl]-3-methyl-1-(1-methylethyl)-1H-indole-4-carboxamide], for which the IC50 is 58.9 nM. For the compound `CCC(C)n1cc(C)c2c(C(=O)NCc3c(C)cc(C)[nH]c3=O)cc(-c3cccc(CN(C)C)c3)cc21` (centres unmarked) [Ex 272, 1-(sec-Butyl)-N-((4,6-dimethyl-2-oxo-1,2-dihydropyridin-3-yl)methyl)-6-(3-((dimethylamino)methyl)phenyl)-3-methyl-1H-indole-4-carboxamide], the negative-log IC50 (pIC50) was 7.89. Consider `Cc1cc(C)c(CNC(=O)c2cc(B(O)O)cc3c2c(C)cn3C(C)C)c(=O)[nH]1` [Example 358, [4-({[(4,6-dimethyl-2-oxo-1,2-dihydro-3-pyridinyl)methyl]amino)carbonyl)-3-methyl-1-(1-methylethyl)-1H-indol-6-yl]boronic acid], for which the IC50 was 468 nM. Consider `Cc1cc(C)c(CNC(=O)c2cc(-c3ccc(N4CCNC(C)(C)C4)nc3)cc3c2c(C)cn3C(C)C)c(=O)[nH]1` [Ex 339, N-[(4,6-dimethyl-2-oxo-1,2-dihydro-3-pyridinyl)methyl]-6-[6-(3,3-dimethyl-1-piperazinyl)-3-pyridinyl]-3-methyl-1-(1-methylethyl)-1H-indole-4-carboxamide], for which the pIC50 is 7.89. Still for that read-out and setting: with `CC[C@H](C)n1cc(C)c2c(C(=O)NCc3c(C)cc(C)[nH]c3=O)cc(-c3cccc(CN(C)C)c3)cc21` [Ex 273, 6-{3-[(Dimethylamino)methyl]phenyl}-N-[(4,6-dimethyl-2-oxo-1,2-dihydro-3-pyridinyl)methyl]-3-methyl-1-[(1S)-1-methylpropyl]-1H-indole-4-carboxamide] the figure was 8.00.

`Cc1cc(C)c(CNC(=O)c2cc(-c3ccc(N4CCNCC4)nc3)cc3c2c(C)cn3C2CCCC2)c(=O)[nH]1` [Ex 275, 1-cyclopentyl-N-((4,6-dimethyl-2-oxo-1,2-dihydropyridin-3-yl)methyl)-3-methyl-6-(6-(piperazin-1-yl)pyridin-3-yl)-1H-indole-4-carboxamide]: the negative logarithm of the IC50 (pIC50) was 8.52.

As usually defined, the pIC50 is the negative decadic logarithm of the IC50, by convention in mol/L.

These data come from patent US8975291B2, “Indoles” (GlaxoSmithKline LLC, priority 2010, dated 2015).
